Source: patent publication US7041463B2, “Orthologues of human receptors and methods of use” (Pharmacopeia Drug Discovery, Inc., priority 2000, dated 2006)
Blank lines part the entries; values can stand above or below the compound they belong to.

Legend:
[1] = biological target: cloned rat NK1 receptor (Rattus norvegicus, UniProt P14600); details: cited from earlier work
[2] = biological target: T1, cholecystokinin-B receptor (Homo sapiens, UniProt P32239); details: human receptor with valine 319 substituted by leucine vs human receptor; cited from earlier work
T1 sequence (P32239 1-447 V349L): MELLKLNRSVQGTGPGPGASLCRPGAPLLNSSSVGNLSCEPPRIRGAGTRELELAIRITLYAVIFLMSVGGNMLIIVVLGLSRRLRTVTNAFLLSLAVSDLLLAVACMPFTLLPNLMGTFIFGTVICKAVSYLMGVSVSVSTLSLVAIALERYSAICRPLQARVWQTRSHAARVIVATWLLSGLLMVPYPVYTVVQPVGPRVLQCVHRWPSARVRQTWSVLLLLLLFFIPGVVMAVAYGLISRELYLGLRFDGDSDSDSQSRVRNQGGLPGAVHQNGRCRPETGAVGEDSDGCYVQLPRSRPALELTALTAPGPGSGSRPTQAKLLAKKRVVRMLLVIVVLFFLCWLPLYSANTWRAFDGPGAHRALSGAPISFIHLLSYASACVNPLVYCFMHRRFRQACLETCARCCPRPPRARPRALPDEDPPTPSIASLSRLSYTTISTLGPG

[3] = biological target: T2, rabbit B1 (Oryctolagus cuniculus, UniProt P48748); experiment: [3H]-des-Arg10-kallidin binding, 293E membranes, rabbit B1; details: 0.6 nM [3H]-dAKd
T2 construct: expressed in transfected cells; host or cells: 293-EBNA (293E) cells, membranes
T2 sequence (P48748 1-352): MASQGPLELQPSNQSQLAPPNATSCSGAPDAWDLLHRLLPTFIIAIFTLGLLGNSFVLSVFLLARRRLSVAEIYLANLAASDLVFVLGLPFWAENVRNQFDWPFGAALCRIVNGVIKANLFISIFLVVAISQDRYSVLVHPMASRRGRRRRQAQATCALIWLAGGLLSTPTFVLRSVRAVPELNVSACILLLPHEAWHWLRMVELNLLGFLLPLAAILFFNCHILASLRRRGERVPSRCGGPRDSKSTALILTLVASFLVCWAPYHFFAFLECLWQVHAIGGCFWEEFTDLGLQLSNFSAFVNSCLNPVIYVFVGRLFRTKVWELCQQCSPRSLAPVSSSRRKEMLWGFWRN
Experimental: (§1) Membrane preparations for use in accordance with the methods of the present invention were generated as follows. 293E cells expressing B1 receptors were harvested and pelleted. Cells were washed once with PBS and once with a membrane buffer (for example, 10 mM HEPES pH 7.5, 1 μM phosphoramidon, 3 μM amastatin, 1 μM captopril, 2 μM dithiothreitol (DTT)). Cells were resuspended in membrane buffer and Dounce homogenized on ice 35 times. The membranes were collected by centrifugation at 15,000×g for 30 min. at 4° C. and resuspended in membrane buffer containing 0.2% bovine serum albumin (BSA) at a final concentration of approximately 5×10^7 cell equivalents per ml. Aliquots were flash frozen and stored at −80° C. Frozen aliquots were subsequently thawed, diluted, and sonicated on ice using a Branson Sonifier® 250 (4×5 sec, 40% output).
(§2) Prior to use in a binding assay, a membrane preparation is “calibrated” as described below to determine the amount of membrane preparation to be used. […]
(§3) The method of the present invention employs a binding assay such as the one described below. […] 50 μl of scintillation fluid was added to each well and plates were counted in a Wallac Microbeta® TriLux for 10 min. per well.

[4] = biological target: pig B1; experiment: [3H]-des-Arg10-kallidin binding, 293E membranes, pig B1; details: 0.6 nM [3H]-dAKd
Experimental: as §1, §2, §3

[5] = biological target: T3, human B1 receptor (Homo sapiens, UniProt P46663); experiment: [3H]-des-Arg10-kallidin binding, 293E membranes, human B1; details: 0.6 nM [3H]-dAKd
T3 construct: expressed in transfected cells; host or cells: 293-EBNA (293E) cells, membranes
T3 sequence (P46663 1-353): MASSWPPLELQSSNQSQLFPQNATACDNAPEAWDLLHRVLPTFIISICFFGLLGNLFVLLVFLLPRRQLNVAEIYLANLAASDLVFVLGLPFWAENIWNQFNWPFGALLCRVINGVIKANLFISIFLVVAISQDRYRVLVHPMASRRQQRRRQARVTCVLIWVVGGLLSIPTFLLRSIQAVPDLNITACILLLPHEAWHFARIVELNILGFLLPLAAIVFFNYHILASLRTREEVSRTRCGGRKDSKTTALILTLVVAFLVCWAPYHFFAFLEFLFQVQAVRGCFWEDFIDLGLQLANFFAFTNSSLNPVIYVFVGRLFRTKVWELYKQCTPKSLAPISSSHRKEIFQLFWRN
From the text: Prior to use in a binding assay, a membrane preparation is “calibrated” as described below to determine the amount of membrane preparation to be used. A frozen sample of a membrane preparation is thawed and the preparation diluted in assay buffer to obtain several different concentrations of membranes, for example, 1:5, 1:10, 1:20, 1:40 and so on. The diluted membrane preparation is sonicated in a bath style sonicator for 15 seconds at room temperature. […]

[6] = biological target: rhesus macaque B1 receptor; experiment: [3H]-des-Arg10-kallidin binding, 293E membranes, rhesus macaque B1; design: species or system rhesus macaque (Macaca mulatta); details: 0.6 nM [3H]-dAKd
Experimental: as §1, §2, §3

[7] = biological target: T4, dog B1 (Canis lupus familiaris, UniProt Q9BDQ5, D322E/F324Y/R319K); experiment: [3H]-des-Arg10-kallidin binding, 293E membranes, dog B1 (canine/human chimera); details: 0.6 nM [3H]-dAKd
T4 construct: the chimeric canine/human receptor described above was used in the experiments described below; C-terminal cytoplasmic tail of human bradykinin B1 receptor (fusion partner of the chimera); expressed in transfected cells; host or cells: 293-EBNA (293E) cells, membranes
T4 sequence (Q9BDQ5 with tags, fused parts or gaps R319K/D322E/F324Y): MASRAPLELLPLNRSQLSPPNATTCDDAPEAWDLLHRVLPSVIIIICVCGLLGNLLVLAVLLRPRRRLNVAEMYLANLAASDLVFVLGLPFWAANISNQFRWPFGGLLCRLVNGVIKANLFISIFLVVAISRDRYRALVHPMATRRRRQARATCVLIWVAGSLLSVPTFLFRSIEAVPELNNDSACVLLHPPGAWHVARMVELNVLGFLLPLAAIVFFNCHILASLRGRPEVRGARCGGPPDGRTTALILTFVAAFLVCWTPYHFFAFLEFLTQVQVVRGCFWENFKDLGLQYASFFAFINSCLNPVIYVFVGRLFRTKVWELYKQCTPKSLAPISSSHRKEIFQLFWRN
From the text: Additionally, a canine/human chimeric bradykinin B1 receptor comprising amino acids 1 to 320 of the canine sequence and amino acids 319–353 of human bradykinin B1 receptor was generated. Any number of chimeric molecules, for example, a chimera comprising amino acids 1–315 of the canine sequence and amino acids 314–353 of the human sequence can be used.
as §1, with “Frozen aliquots were subsequently thawed, diluted, and sonicated on ice using a Branson Sonifier® 250 (4×5 sec, 40% output).” left out
as §3

[8] = biological target: tree shrew B1 receptor; experiment: [3H]-des-Arg10-kallidin binding, 293E membranes, tree shrew B1; design: species or system tree shrew (Tupaia minor); details: 0.6 nM [3H]-dAKd
Experimental: as §1, §2, §3

Sequence of tree shrew B1 receptor (as listed by the source): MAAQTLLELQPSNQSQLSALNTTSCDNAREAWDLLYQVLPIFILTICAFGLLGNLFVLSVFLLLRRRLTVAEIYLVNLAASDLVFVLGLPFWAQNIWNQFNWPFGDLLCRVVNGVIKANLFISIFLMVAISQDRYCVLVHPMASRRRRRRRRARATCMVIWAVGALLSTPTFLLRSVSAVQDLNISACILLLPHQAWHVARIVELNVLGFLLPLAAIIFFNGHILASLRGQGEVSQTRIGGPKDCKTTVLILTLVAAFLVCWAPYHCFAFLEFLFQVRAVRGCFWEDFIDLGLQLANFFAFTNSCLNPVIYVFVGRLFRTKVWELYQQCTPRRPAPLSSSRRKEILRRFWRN
Sequence of pig B1 (as listed by the source): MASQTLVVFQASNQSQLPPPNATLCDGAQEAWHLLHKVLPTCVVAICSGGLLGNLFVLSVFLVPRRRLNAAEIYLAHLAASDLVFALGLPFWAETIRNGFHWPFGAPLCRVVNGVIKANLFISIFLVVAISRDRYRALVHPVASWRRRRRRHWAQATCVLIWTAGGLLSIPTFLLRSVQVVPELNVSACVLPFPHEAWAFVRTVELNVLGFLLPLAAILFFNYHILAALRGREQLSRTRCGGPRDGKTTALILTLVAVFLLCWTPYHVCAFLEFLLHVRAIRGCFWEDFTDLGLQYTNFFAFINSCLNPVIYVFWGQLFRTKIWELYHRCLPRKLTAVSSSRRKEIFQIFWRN
Sequence of cloned rat NK1 receptor (P14600 whole entry): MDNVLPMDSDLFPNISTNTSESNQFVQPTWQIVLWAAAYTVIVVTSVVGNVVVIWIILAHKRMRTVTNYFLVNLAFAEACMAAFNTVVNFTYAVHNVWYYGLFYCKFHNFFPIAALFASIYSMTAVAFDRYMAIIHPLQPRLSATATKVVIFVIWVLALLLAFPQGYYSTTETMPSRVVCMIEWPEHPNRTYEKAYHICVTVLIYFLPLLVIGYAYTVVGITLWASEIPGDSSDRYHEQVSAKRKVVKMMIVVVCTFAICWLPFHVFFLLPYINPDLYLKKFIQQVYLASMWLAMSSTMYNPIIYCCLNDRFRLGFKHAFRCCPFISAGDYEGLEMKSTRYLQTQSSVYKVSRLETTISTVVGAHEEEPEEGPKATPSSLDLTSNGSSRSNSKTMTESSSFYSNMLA
Sequence of rhesus macaque B1 receptor (as listed by the source): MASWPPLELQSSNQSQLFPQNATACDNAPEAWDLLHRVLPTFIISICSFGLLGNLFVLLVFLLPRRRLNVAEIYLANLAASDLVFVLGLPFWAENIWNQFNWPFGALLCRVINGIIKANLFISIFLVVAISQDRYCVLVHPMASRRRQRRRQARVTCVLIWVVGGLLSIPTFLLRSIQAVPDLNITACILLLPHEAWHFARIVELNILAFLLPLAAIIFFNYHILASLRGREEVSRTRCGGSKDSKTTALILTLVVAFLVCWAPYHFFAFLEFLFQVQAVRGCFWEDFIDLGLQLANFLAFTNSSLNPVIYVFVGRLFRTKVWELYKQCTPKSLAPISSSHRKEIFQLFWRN

Compound: COc1ccccc1CN[C@H]1C2CCN(CC2)[C@H]1C(c1ccccc1)c1ccccc1 [CP-96,345]
- IC50 [1]: 40 nM

Compound: Cc1cccc(NC(=O)N[C@@H]2N=C(c3ccccc3)c3ccccc3N(C)C2=O)c1 [Compound L365260]
- decrease of binding affinity [2]: 20 fold

- affinity (K1) at rabbit B1, in words [3]: weak activity
- affinity (K1) at pig B1, in words [4]: weak activity
- affinity (K1) at human B1, in words [5]: inactivity
- affinity (K1) at rhesus macaque B1, in words [6]: inactivity
- affinity (K1) at dog B1, in words [7]: low nM potency
- affinity (K1) at tree shrew B1, in words [8]: inactivity
Compound: [des-Arg^9]BK (RPPGFSPF) [dABk]
